Experimental data published in ChEMBL document CHEMBL2311248, “Discovery of potent myeloid cell leukemia 1 (Mcl-1) inhibitors using fragment-based methods and structure-based design” (J Med Chem, 2013).

Experiments:
[1] = biological target: Induced myeloid leukemia cell differentiation protein Mcl-1 (Homo sapiens, UniProt Q07820)
[2] = biological target: Apoptosis regulator Bcl-2 (Homo sapiens, UniProt P10415)
[3] = biological target: Bcl-2-like protein 1 (Homo sapiens, UniProt Q07817)
Sequence of Bcl-2-like protein 1 (Q07817 whole entry): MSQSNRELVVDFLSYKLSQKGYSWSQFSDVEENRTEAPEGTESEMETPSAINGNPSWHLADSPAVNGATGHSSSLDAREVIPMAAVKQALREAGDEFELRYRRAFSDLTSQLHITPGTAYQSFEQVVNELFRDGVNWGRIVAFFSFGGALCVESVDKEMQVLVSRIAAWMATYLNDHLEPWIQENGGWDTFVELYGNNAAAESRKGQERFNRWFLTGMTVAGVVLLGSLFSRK

Sequence of Apoptosis regulator Bcl-2 (P10415 whole entry): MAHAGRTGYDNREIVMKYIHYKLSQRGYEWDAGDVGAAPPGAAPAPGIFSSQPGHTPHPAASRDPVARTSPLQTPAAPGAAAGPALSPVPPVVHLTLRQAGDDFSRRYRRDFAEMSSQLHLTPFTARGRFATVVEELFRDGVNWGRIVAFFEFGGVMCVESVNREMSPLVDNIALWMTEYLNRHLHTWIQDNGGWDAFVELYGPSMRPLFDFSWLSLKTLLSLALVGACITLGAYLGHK
Sequence of Induced myeloid leukemia cell differentiation protein Mcl-1 (Q07820 whole entry): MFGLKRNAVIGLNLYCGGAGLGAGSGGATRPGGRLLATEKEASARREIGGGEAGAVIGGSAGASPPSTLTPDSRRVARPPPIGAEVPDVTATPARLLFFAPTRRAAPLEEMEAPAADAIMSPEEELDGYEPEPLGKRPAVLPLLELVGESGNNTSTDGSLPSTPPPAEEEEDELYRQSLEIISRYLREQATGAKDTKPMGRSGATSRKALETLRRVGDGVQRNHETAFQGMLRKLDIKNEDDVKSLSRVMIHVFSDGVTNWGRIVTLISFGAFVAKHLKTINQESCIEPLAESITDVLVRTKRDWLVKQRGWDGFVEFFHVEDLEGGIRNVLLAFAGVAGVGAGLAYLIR

SMILES | Ki [1] [µM] | Ki [2] [µM] | Ki [3] [µM]
O=C(O)c1oc2ccccc2c1CCCOc1cccc2ccccc12 | – | 4.3 | –
Cc1cc(OCCCc2c(C(=O)O)[nH]c3ccccc23)cc(C)c1Cl | – | 5.3 | > 15
NC(=O)c1cc2ccccc2n1CCCOc1cccc2ccccc12 | > 500 | – | –
O=C(O)c1sc2ccccc2c1CCc1cccc2ccccc12 | 12.5 | – | –
O=C(O)c1oc2ccccc2c1CCc1cccc2ccccc12 | 9.5 | – | –
O=C(O)c1sc2cc(Cl)ccc2c1CCCOc1cccc2ccccc12 | – | 0.96 | –
Cc1cc(OCCCc2c(C(=O)O)[nH]c3cc(Cl)ccc23)ccc1Cl | – | 1.4 | > 15
O=C(O)c1sc2cccc(Cl)c2c1Cl | – | > 1000 | > 1000
O=C(O)c1oc2ccccc2c1CCCc1cccc2ccccc12 | 14.6 | – | –
Cc1c(C(=O)O)oc2c(C)cccc12 | – | > 1000 | > 1000
Cc1cc(OCCCn2c(C(=O)O)cc3ccccc32)ccc1Cl | 1.2 | – | –
Cc1cc(OCCCc2c(C(=O)O)n(C)c3ccccc23)cc(C)c1Cl | – | 7.4 | > 15
c1ccc2c(CSc3ncn[nH]3)cccc2c1 | 86 | > 1000 | > 1000
Cc1cccc2c(-c3ccccc3)c(C(=O)O)[nH]c12 | – | > 1000 | > 1000
Cc1cc(OCCCc2c(C(=O)O)[nH]c3ccccc23)ccc1Cl | – | 9.1 | > 15
Cc1ccc2c(Cl)c(C(=O)O)sc2c1 | – | > 1000 | 230
Cc1cc(OCCCc2c(C(=O)O)sc3cc(Cl)ccc23)cc(C)c1Cl | – | 0.8 | 4.1
O=C(O)c1cc2ccccc2[nH]1 [INDOLE-2-CARBOXYLIC ACID] | > 1000 | – | –
O=C(O)c1[nH]c2cc(Cl)ccc2c1CCCOc1cccc2ccccc12 | – | 0.96 | 6.8
Cc1cc(OCCC(=O)O)cc(C)c1Cl | 60 | > 1000 | > 1000
Cn1c(C(=O)O)c(CCCOc2cccc3ccccc23)c2ccccc21 | – | > 15 | > 15

Second part, led by results:

Ki [1] [µM] | SMILES | Ki [2] [µM] | Ki [3] [µM]
0.066 | O=C(O)c1[nH]c2cc(Cl)ccc2c1CCCOc1cccc2c1CCCC2 | – | –
> 1000 | O=C(O)c1cc2ccccc2o1 | – | –
0.47 | O=C(O)c1cc2ccccc2n1CCCOc1cccc2ccccc12 | – | –
9.6 | O=C(O)c1sc2ccccc2c1CCCc1cccc2ccccc12 | – | –
103 | Cc1cc(OCC(=O)O)ccc1Cl | > 1000 | > 1000
0.29 | O=C(O)c1c(CCCOc2cccc3ccccc23)c2ccccc2n1Cc1ccccc1 | > 15 | > 15
0.41 | Cc1cc(OCCCn2c(C(=O)O)cc3ccccc32)cc(C)c1Cl | – | –
